Data on two molecules can be found in article doi:10.1101/2024.08.13.607785v1 (biorxiv, 2024).

Like-named read-outs stand apart in the source and are kept apart here.

Common to all, as to experiment: biochemical
Set-up in all cases: species or system human cell line lysate

For test [1], the target named is Casein kinase I isoform delta ; CSNK1D ; P48730 (Homo sapiens, UniProt P48730).
Test [2] addresses Tyrosine-protein kinase JAK1 ; JAK1 ; P23458 (Homo sapiens, UniProt P23458).
Test [3] addresses Leucine-rich repeat serine/threonine-protein kinase 2 ; LRRK2 ; Q5S007 (Homo sapiens, UniProt Q5S007).
The target of test [4] is Mitogen-activated protein kinase kinase kinase 6 ; MAP3K6 ; O95382 (Homo sapiens, UniProt O95382).
The target of test [5] is cAMP-dependent protein kinase catalytic subunit PRKX ; PRKX ; P51817 (Homo sapiens, UniProt P51817).
The target of test [6] is Serine/threonine-protein kinase Nek9 ; NEK9 ; Q8TD19 (Homo sapiens, UniProt Q8TD19).
Serine/threonine-protein kinase Nek9 ; NEK9 ; Q8TD19, sequence (Q8TD19 whole entry, one chain of several): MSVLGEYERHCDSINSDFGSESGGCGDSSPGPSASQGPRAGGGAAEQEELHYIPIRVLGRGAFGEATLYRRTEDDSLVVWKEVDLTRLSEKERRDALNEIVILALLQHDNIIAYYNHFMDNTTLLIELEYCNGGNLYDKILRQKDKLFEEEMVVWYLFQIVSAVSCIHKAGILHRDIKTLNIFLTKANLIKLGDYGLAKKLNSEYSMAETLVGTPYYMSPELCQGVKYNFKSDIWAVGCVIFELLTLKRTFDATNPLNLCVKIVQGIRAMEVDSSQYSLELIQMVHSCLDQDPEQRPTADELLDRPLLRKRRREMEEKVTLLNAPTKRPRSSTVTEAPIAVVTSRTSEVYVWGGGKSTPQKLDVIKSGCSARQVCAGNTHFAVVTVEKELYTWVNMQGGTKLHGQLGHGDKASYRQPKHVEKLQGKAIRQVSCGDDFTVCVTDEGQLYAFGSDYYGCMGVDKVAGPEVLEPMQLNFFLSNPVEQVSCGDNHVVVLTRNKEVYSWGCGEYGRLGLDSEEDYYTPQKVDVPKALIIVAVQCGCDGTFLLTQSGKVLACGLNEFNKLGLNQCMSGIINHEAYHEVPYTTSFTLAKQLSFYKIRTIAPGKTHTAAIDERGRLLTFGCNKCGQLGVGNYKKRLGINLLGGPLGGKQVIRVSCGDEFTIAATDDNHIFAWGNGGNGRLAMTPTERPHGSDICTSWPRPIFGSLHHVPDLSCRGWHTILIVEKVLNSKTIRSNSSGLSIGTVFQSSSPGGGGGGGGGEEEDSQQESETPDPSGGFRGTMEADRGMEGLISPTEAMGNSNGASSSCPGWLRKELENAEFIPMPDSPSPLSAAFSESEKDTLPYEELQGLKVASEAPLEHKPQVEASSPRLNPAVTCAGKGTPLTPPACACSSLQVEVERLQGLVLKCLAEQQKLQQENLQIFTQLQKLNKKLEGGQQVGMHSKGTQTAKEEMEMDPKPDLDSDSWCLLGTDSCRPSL
The target in test [7] is Microtubule-associated serine/threonine-protein kinase 2 ; MAST2 ; Q6P0Q8 (Homo sapiens, UniProt Q6P0Q8).
Test [8] concerns the target Ephrin type-A receptor 2 ; EPHA2 ; P29317 (Homo sapiens, UniProt P29317).
Test [9] deals with Phosphatidylinositol 4,5-bisphosphate 3-kinase catalytic subunit delta ; PIK3CD ; O00329 (Homo sapiens, UniProt O00329).
In test [10] the target is MAP/microtubule affinity-regulating kinase 4 ; MARK4 ; Q96L34 (Homo sapiens, UniProt Q96L34).
Test [11] addresses cAMP-dependent protein kinase catalytic subunit alpha ; PRKACA ; P17612 (Homo sapiens, UniProt P17612).
Test [12] deals with RAC-alpha serine/threonine-protein kinase ; AKT1 ; P31749 (Homo sapiens, UniProt P31749).
Test [13] addresses Serine/threonine-protein kinase pim-1 ; PIM1 ; P11309 (Homo sapiens, UniProt P11309).
In test [14] the target is Mitogen-activated protein kinase kinase kinase kinase 2 ; MAP4K2 ; Q12851 (Homo sapiens, UniProt Q12851).
The target in test [15] is Phosphatidylinositol 5-phosphate 4-kinase type-2 gamma ; PIP4K2C ; Q8TBX8 (Homo sapiens, UniProt Q8TBX8).
Phosphatidylinositol 5-phosphate 4-kinase type-2 gamma ; PIP4K2C ; Q8TBX8, sequence (Q8TBX8 whole entry): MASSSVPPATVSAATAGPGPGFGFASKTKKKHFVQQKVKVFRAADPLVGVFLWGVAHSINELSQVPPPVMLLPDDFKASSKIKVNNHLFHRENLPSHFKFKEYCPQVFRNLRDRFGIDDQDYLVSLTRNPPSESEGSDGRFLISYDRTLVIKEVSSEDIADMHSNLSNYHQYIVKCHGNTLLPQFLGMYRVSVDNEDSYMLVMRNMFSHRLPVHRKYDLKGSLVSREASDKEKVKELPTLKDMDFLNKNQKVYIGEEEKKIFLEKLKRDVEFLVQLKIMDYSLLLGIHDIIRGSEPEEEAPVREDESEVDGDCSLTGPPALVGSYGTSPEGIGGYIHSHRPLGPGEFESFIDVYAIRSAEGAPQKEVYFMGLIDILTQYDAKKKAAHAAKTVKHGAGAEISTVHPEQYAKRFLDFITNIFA
In test [16] the target is Ephrin type-A receptor 5 ; EPHA5 ; P54756 (Homo sapiens, UniProt P54756).
Test [17] has as its target DNA-dependent protein kinase catalytic subunit ; PRKDC ; P78527 (Homo sapiens, UniProt P78527).
For test [18], the target named is Isoform 3 of Membrane-associated tyrosine- and threonine-specific cdc2 ; PKMYT1 ; Q99640-3 (Homo sapiens, UniProt Q99640).
The target in test [19] is Serine/threonine-protein kinase RIO1 ; RIOK1 ; Q9BRS2 (Homo sapiens, UniProt Q9BRS2).
Serine/threonine-protein kinase RIO1 ; RIOK1 ; Q9BRS2, sequence (Q9BRS2 whole entry, one chain of several): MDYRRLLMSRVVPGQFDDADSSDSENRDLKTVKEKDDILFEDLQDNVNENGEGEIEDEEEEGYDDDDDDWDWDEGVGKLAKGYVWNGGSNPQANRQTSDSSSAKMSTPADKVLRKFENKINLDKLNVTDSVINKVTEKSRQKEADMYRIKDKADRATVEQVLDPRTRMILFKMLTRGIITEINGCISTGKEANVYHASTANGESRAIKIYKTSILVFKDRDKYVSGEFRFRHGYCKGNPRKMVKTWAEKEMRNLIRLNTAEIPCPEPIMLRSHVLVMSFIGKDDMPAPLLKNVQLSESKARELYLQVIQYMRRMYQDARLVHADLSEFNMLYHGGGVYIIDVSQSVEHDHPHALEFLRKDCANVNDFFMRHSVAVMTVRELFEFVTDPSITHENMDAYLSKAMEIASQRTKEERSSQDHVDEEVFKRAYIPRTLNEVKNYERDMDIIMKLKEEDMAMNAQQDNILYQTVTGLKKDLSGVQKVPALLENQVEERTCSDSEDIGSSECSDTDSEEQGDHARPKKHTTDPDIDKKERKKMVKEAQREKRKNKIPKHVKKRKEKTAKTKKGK
In test [20] the target is Phosphatidylinositol 4,5-bisphosphate 3-kinase catalytic subunit beta ; PIK3CB ; P42338 (Homo sapiens, UniProt P42338).
The target of test [21] is Isoform 2 of 5'-AMP-activated protein kinase catalytic subunit alpha-1 ; PRKAA1 ; Q13131-2 (Homo sapiens, UniProt Q13131).
Isoform 2 of 5'-AMP-activated protein kinase catalytic subunit alpha-1 ; PRKAA1 ; Q13131-2, sequence (Q13131 whole entry, canonical isoform, one chain of several): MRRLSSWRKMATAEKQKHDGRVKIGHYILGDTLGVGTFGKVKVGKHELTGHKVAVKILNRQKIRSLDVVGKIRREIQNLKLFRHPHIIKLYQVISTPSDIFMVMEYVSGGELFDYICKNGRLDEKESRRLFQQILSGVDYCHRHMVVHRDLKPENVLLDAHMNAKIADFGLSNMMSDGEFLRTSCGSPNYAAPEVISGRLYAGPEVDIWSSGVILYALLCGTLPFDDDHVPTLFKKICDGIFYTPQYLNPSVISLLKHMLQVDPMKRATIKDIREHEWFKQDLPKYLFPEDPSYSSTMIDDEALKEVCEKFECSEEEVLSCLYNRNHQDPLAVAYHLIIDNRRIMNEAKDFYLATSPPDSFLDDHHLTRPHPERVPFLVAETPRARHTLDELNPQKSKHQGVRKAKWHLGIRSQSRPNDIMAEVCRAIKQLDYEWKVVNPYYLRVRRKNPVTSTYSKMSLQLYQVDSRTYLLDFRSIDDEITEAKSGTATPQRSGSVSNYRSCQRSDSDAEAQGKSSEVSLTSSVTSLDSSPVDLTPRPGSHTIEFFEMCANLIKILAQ
Test [22] has as its target Serine/threonine-protein kinase mTOR ; MTOR ; P42345 (Homo sapiens, UniProt P42345).
For test [23], the target named is Tyrosine-protein kinase Mer ; MERTK ; Q12866 (Homo sapiens, UniProt Q12866).
[24] abbreviates: read-out: BAY-1251152 (10 µM) / %Intensity relative to DMSO.
[25] abbreviates: read-out: BAY-1143572 (10 µM) / %Intensity relative to DMSO.

Tyrosine-protein kinase JAK1 ; JAK1 ; P23458, sequence (P23458 whole entry): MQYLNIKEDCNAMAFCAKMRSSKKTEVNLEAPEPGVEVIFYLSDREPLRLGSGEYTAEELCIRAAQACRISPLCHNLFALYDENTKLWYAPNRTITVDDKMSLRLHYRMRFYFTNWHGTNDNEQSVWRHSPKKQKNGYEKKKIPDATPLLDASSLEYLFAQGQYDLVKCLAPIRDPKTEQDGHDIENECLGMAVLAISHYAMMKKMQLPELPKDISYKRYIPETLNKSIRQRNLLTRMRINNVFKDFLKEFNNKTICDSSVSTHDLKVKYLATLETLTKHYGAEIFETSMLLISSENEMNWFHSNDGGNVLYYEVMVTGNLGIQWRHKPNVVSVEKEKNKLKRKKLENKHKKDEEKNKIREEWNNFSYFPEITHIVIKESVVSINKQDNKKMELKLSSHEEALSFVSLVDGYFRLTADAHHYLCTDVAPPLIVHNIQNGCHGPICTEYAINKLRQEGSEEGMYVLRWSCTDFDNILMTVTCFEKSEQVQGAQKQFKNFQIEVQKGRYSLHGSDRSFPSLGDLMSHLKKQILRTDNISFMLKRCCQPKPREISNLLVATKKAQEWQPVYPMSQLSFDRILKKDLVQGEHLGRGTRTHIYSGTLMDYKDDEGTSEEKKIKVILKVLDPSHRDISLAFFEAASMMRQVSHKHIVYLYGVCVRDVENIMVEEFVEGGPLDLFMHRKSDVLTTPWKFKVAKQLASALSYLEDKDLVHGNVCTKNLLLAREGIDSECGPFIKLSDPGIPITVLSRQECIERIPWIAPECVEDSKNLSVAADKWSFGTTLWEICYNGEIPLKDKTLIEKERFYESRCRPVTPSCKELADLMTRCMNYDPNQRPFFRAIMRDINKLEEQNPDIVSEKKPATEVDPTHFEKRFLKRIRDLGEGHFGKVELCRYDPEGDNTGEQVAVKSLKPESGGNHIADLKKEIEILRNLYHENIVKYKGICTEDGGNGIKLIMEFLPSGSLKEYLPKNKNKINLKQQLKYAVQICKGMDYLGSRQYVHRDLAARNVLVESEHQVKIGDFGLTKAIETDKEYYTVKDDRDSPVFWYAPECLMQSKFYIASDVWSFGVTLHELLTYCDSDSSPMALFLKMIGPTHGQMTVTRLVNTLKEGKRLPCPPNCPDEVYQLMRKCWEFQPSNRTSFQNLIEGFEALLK
Casein kinase I isoform delta ; CSNK1D ; P48730, sequence (P48730 whole entry, canonical isoform): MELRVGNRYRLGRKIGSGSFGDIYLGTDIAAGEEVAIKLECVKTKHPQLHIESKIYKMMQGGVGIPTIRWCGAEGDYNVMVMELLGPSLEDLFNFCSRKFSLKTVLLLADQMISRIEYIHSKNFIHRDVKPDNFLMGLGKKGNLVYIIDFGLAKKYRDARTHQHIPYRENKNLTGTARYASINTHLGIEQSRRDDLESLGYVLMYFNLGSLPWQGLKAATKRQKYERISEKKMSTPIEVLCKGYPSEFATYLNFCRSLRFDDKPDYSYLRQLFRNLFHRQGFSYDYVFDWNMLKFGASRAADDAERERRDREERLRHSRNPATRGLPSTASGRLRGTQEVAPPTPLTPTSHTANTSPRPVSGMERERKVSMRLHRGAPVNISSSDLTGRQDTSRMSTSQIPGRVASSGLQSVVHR
Ephrin type-A receptor 2 ; EPHA2 ; P29317, sequence (P29317 whole entry): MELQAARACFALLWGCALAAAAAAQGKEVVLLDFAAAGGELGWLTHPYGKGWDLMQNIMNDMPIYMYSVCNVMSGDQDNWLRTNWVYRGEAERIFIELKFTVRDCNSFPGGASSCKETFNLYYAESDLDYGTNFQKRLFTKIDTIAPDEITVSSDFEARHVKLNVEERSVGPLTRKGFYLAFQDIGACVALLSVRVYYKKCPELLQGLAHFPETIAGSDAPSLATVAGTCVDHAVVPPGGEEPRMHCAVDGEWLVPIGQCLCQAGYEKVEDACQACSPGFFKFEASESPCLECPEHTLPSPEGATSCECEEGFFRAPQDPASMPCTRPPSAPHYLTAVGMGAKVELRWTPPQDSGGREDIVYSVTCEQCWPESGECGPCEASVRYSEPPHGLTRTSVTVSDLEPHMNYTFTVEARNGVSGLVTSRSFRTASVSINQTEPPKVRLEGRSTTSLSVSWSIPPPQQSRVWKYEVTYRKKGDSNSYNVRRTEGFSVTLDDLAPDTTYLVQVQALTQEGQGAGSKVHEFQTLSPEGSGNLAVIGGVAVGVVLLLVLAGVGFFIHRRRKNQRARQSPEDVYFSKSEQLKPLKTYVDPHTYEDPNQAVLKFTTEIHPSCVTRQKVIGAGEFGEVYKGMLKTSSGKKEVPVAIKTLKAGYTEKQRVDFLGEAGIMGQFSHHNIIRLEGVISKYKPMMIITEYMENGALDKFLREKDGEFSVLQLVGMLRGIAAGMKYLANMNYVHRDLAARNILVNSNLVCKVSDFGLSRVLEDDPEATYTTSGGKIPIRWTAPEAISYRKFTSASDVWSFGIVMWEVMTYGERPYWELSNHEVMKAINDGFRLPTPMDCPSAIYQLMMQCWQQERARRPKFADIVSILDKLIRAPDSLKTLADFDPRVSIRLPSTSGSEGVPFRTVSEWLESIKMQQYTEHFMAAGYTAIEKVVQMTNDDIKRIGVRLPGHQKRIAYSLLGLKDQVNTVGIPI

Take `COc1cc(F)ccc1-c1cc(Nc2cc(CS(C)(=N)=O)ccn2)ncc1F` (stereo not shown) [BAY-1251152]: the remaining activity at 10 µM in [1] (setting [24]) came to 117%; in [2] (setting [24]), 110%; in [3] (setting [24]), 107%; in test [4] (setting [24]), 103%; in test [5] (setting [24]) it was 140%; in test [6] (setting [24]), 110%. Further, the remaining activity at 10 µM was 32.9% in test [7] (setting [24]); 103% in [8] (setting [24]); 113% in [9] (setting [24]); 105% in test [10] (setting [24]); 101% in test [11] (setting [24]); 125% in [12] (setting [24]). Moreover, the remaining activity at 10 µM in test [13] (setting [24]) was 110%; in [14] (setting [24]) it was 73.8%; in [15] (setting [24]), 107%; in test [16] (setting [24]), 109%; in [17] (setting [24]), 107%; in test [18] (setting [24]), 107%. Further, the remaining activity at 10 µM amounted to 96.7% in test [19] (setting [24]); 57.7% in test [20] (setting [24]); 103% in test [21] (setting [24]); 103% in test [22] (setting [24]); 52.5% in [23] (setting [24]).
In the case of `COc1cc(F)ccc1-c1ncnc(Nc2cccc(C[S@](C)(=N)=O)c2)n1` [BAY-1143572], the remaining activity at 10 µM in [1] (setting [25]) amounted to 121%; in [2] (setting [25]), 104%; in test [3] (setting [25]), 109%; in test [4] (setting [25]), 103%; in [5] (setting [25]) it was 152%; in test [6] (setting [25]) it was 110%. The remaining activity at 10 µM in [7] (setting [25]) turned out to be 42.2%; in test [8] (setting [25]), 84.9%; in test [9] (setting [25]), 116%; in test [10] (setting [25]), 110%; in [11] (setting [25]), 115%; in test [12] (setting [25]), 128%. In addition, the remaining activity at 10 µM in test [13] (setting [25]) came out at 124%; in test [14] (setting [25]), 106%; in [15] (setting [25]), 110%; in test [16] (setting [25]) it was 99.7%; in test [17] (setting [25]) it was 106%; in test [18] (setting [25]) it was 117%. Also, the remaining activity at 10 µM stood at 106% in test [19] (setting [25]); 83.7% in [20] (setting [25]); 99.5% in test [21] (setting [25]); 98.9% in [22] (setting [25]); 86.5% in test [23] (setting [25]).
